Data reported in patent US10323012B2 (priority 2012, dated 2019).
Like-named read-outs stand apart in the source and are kept apart here.

Assays:
[1] = tested on: HIV/VSV-G virions; details: read-out: Anti-HIV Activity (EC50)
[2] = tested on: HIV/HA virions (H5N1 HA and NA); details: human
[3] = tested on: HIV/HA virions (H5N1 HA and NA); assay: in vitro; details: human, Selective Index (CC50/IC50), anti-H5N1
[4] = tested on: HIV/HA virions (H5N1 HA and NA); assay: microbe, parasite or virus in culture; details: Human immunodeficiency virus 1, H5N1, A549, in Homo sapiens, 48 h, read-out: Anti-H5N1 Activity (EC50)
[5] = Toxicity of 4α-(N-phenyl)miliusate in mice; type: in vivo, BALB/c nude mice
Source text: All animal studies are approved and performed according to Animal Care and Use Guidelines of the Animal Ethics Committee at Hong Kong Baptist University and performed following Animal Care and Use guidelines set by NIH (National Institute of Health, USA). BALB/c nude mice, SPF class, male or female, 7-8 weeks old (average body weight 22 g), are purchased from Charles River Laboratories. Before the experiment, the mice are kept for one week of acclimatization to SPF class laboratory conditions. […] Every other day injections at i.p. sites are scheduled for 21 days. Weights of mice are measured twice a week until the end of the experiment.

[6] = tested on: HIV/VSV-G virions; assay: in vitro; details: human
[7] = tested on: HIV/VSV-G virions; assay: microbe, parasite or virus in culture; details: Human immunodeficiency virus 1, A549, in Homo sapiens, 48 h, read-out: Anti-HIV Activity (EC50)
[8] = 20 and 40 mg/kg i.p., every other day for 21 days, 10 mice/group

For 8′,10′-Dihydroxy-miliusate, the EC50 [1] was 14.4 µM.

10′-Hydroxy-8′-oxo-miliusate showed an EC50 [1] of 4.97 µM.

With `CO[C@@H]1CC(=O)C2(CC(=O)O[C@@H]2/C=C(\C)CCC=C(C)C)C[C@@H]1O` (some centres unmarked) [Miliusane I] the “Selective Index (CC50/IC50), anti-H5N1” value [2] was 10, the selectivity ratio [3] was 9.5 and the EC50 [4] was 0.71 µM.

With 4α-(N-Phenyl)miliusate the Health of mice [5, 8] was “all mice remained healthy”, the “Weight loss of mice” value [5, 8] was “no weight loss” and the Toxicity in mice ([5]; doses of 40 mg/kg) was “no toxicity”. It also gave an EC50 [1] of 2.7 µM.

With `CC(=O)O[C@@H]1CCC(=O)C2(CC(=O)O[C@@H]2/C=C(\C)CCC=C(C)C)C1` (some centres unmarked) [3,4-Dihydro-miliusate] the selectivity ratio [6] was 1 and the EC50 [7] was 67 µM.
